A short description of data set [1]: pH of one percent solution in distilled water. Format: physicochemical.
The conditions of data set [2]: cited from earlier work.

Molecules are shown by their SMILES.

As for `NCCC(O)(P(=O)(O)O)P(=O)(O)O` [pamidronate disodium], in data set [1], the pH of solution result is given as “approximately 8.3”. For the compound `NCCC(O)(P(=O)(O)O)P(=O)(O)O` [Pamidronic acid, (3 amino-1-hydroxypropylidene) bisphosphonic acid], the Solubility in water result in data set [2] is listed as “practically insoluble”.

These data come from US20030124151A1, “Pamidronate solution” (Mayne Pharma Pty Ltd., priority 2000, published 2003).
